Test results as given in paper PMC11117661, “Development of a Novel In Silico Classification Model to Assess Reactive Metabolite Formation in the Cysteine Trapping Assay and Investigation of Important Substructures” (Biomolecules, 2024).

assay: not given; conditions: human, 2 h, 20 µM, pH 7.4

| SMILES | RI integrated area [count] |
| --- | --- |
| Nc1c2c(nc3ccccc13)CCCC2 [Tacrine] | 243.5 |

assay: cysteine trapping assay ([35S]cysteine, HPLC with radiomatic detector) for reactive metabolites; conditions: human liver microsome 2 mg/mL, L-[35S]-Cysteine, NADPH, 37 °C, 2 h
Experimental: The reagents for making the reaction solution were phosphate buffer (pH 7.4; 100 mM), ethylenediaminetetraacetic acid (EDTA; 1 mM) (Tokyo Kasei, Tokyo, Japan), MgCl2 hexahydrate (Fuji Film Wako Co., Ltd., Osaka, Japan, reagent special grade; 3 mM), glucose-6-phosphate (G6P; 5 mM) (Roche, Basel, Switzerland), G6P dehydrogenase (G6PDH; 1 IU) (Oriental Yeast Co., Ltd., Tokyo, Japan), human liver microsome solution (Xenotech, Kansas City, MO, USA; 2 mg/mL), and L-[35S]-Cysteine (PerkinElmer Japan Co., Ltd., Kanagawa, Japan; 3.7 MBq/mL), which were prepared using ultrapure water. The evaluation compound was dissolved in dimethyl sulfoxide (DMSO) and its concentration was adjusted to 4 mM. This was used as a substrate solution.
On ice, 239 µL of the reaction solution was dispensed into a glass tube and then 1.25 µL of the substrate solution was added, mixed, and placed in a water bath (PERSONAL-11, Taitec Co., Ltd., Saitama, Japan) at 37 °C. After pre-incubation for 5 min, 10 µL of 25 mM nicotinamide adenine dinucleotide phosphate (NADPH) (Roche, Basel, Switzerland) solution was added and mixed to a final concentration of 20 µM to initiate a metabolic reaction and incubated in a water bath at 37 °C for 2 h. After incubation, 500 µL of acetonitrile was added and mixed, and the tube was chilled on ice to deproteinize, after which 50 µL of 250 mM GSH solution was added and mixed to stop the reaction, and centrifuged (approximately 1500× g, 4°C, 10 min, CF16RXII, Hitachi, Ltd., Tokyo, Japan). After centrifugation, 750 µL of the supernatant was transferred to a new glass tube and concentrated by vacufugation (VC-96N, Taitec Co., Ltd., Saitama, Japan) for 2 h. After concentrating the solution, we added 100 µL of the redissolving solution (40% methanol solution), mixed it with a vortex (IS-MBI minimixer, Ikeda Rika Co., Ltd., Tokyo, Japan) to redissolve, and then the sample was placed in a filter tube [Merck Millipore, Darmstadt, Germany] and centrifuged (approximately 5000× g, room temperature, 10 min).
Both High Performance Liquid Chromatography (HPLC) (Nexera XR, Shimadzu Corporation, Kyoto, Japan) and a radiomatic detector (Radiomatic 610TR, PerkinElmer Japan Co., Ltd.) were used to analyze the prepared samples. The 35S content was detected by running the separated sample via the 45-min analytical method through a radiomatic detector. The mobile phase was composed of a gradient of 0.1% (v/v) formic acid/water and 0.1% (v/v) formic acid/acetonitrile, and the chromatographic separation was performed using a column (Synergi 4 μm Hydro-RP 80A 150 × 3.00 mm, Phenomenex, Torrance, CA, USA).
Considering this, the amount of covalent binding in microsomes in the in vitro covalent binding test of 50 pmol/g or more was judged as a risk. The threshold of the total RI integrated area in cysteine trapping at that time was about 1000 counts. Therefore, we labeled compounds with more than 1000 counts of RI integrated area as positive, and those with less than 1000 counts as negative.

| SMILES | RI integrated area [count] |
| --- | --- |
| Cc1c(C)c2c(c(C)c1O)CCC(C)(COc1ccc(CC3SC(=O)NC3=O)cc1)O2 (stereo not shown) [Troglitazone] | 521.7 |
| CC(C)C(=O)Nc1ccc([N+](=O)[O-])c(C(F)(F)F)c1 [Flutamide] | 680.4 |
| Cc1c(N(C)C)c(=O)n(-c2ccccc2)n1C [Aminopyrine] | 44.3 |
| O=C(O)Cc1ccccc1Nc1c(Cl)cccc1Cl [Diclofenac] | 1230.1 |
| COC(=O)[C@H](c1ccccc1Cl)N1CCc2sccc2C1 [Clopidogrel] | 708.2 |
| O=C1NC(=O)C(c2ccccc2)(c2ccccc2)N1 [Phenytoin] | 34.7 |
| CC(C)NCC(O)COc1cccc2ccccc12 (stereo not shown) [Propranolol] | 3667.2 |
| Cn1c(=O)c2c(ncn2C)n(C)c1=O [Caffeine] | 22.4 |
| COc1cc(C(=O)NS(=O)(=O)c2ccccc2C)ccc1Cc1cn(C)c2ccc(NC(=O)OC3CCCC3)cc12 [Zafirlukast] | 263.4 |
| CC/C(=C(\c1ccccc1)c1ccc(OCCN(C)C)cc1)c1ccccc1 [Tamoxifen] | 162.1 |
| CC(C)c1nc(CN(C)C(=O)N[C@H](C(=O)N[C@@H](Cc2ccccc2)C[C@H](O)[C@H](Cc2ccccc2)NC(=O)OCc2cncs2)C(C)C)cs1 [Ritonavir] | 593.9 |
| CCc1ccc(CCOc2ccc(CC3SC(=O)NC3=O)cc2)nc1 (stereo not shown) [Pioglitazone] | 105.8 |
| CN(CCOc1ccc(CC2SC(=O)NC2=O)cc1)c1ccccn1 (stereo not shown) [Rosiglitazone] | 1593.7 |
| CCc1oc2ccccc2c1C(=O)c1cc(Br)c(O)c(Br)c1 [Benzbromarone] | 4516.4 |
| COc1ccc2c(c1)c(CC(=O)O)c(C)n2C(=O)c1ccc(Cl)cc1 [Indomethacin] | 89.0 |
| Cc1cc(CC(=O)O)n(C)c1C(=O)c1ccc(Cl)cc1 [Zomepirac] | 217.5 |
| CC[C@H](C)C(=O)O[C@H]1C[C@H](O)C=C2C=C[C@H](C)[C@H](CC[C@@H](O)C[C@@H](O)CC(=O)O)[C@H]21 [Pravastatin] | 25.4 |
| C[C@H]1COc2c(N3CCN(C)CC3)c(F)cc3c(=O)c(C(=O)O)cn1c23 [Levofloxacin] | 150.3 |
| CNCCC(Oc1ccc(C(F)(F)F)cc1)c1ccccc1 (stereo not shown) [Fluoxetine] | 153.8 |
| NC(=O)N1c2ccccc2C=Cc2ccccc21 [Carbamazepine] | 61.8 |
| O=C(O)COc1ccc(C(=O)c2cccs2)c(Cl)c1Cl [Tienilic acid] | 3783.7 |
| CCN(CC)Cc1cc(Nc2ccnc3cc(Cl)ccc23)ccc1O [Amodiaquine] | 346.7 |

same assay, conditions: threshold area 1000

| SMILES | outcome in the cysteine trapping assay |
| --- | --- |
| Cc1c(C)c2c(c(C)c1O)CCC(C)(COc1ccc(CC3SC(=O)NC3=O)cc1)O2 (stereo not shown) [Troglitazone] | negative |
| CCc1ccc(CCOc2ccc(CC3SC(=O)NC3=O)cc2)nc1 (stereo not shown) [Pioglitazone] | negative |
